This note sets out measurements from article PMC6161602, “Synthesis and characterisation of (Z)-styrylbenzene derivatives as potential selective anticancer agents” (Journal of Enzyme Inhibition and Medicinal Chemistry, 2018).

Data set [1] has as its system HeLa cervical cancer cell. The data set is described as follows: MTT cell growth inhibition assay, HeLa. Type of data set: cell-based, human. The settings on record: 48 h incubation. An excerpt: (§1) All human cell lines were used in this study. MGC-803 late-stage differentiation gastric cancer cell, A549 lung cancer cell, HepG2 hepatoma cell, AGS gastric cancer cell, BEL-7402 liver cancer cell, HCT-116 colorectal cancer cell, HeLa cervical cancer cell, SGC-7901 early differentiation gastric cancer cell, L-02 normal liver cell, MCF-7 breast cancer cell, and MCF-10A normal breast cell were initially purchased from American Type Culture Collection (ATCC, Manassas, VA, USA). RPMI-1640 media, Dulbecco’s modified Eagle’s medium (DMEM), and foetal bovine serum (FBS) were provided from Gibco Company (Grand Island, NY, USA). The cells were maintained in DMEM or RPMI-1640, supplemented with 10% FBS, 100 IU/mL penicillin and […] (Grand Island, NY, USA), and at 37 °C in a humidified atmosphere containing 5% CO2.
(§2) Cells were plated in 96-well plates at a density of 30–40% to ensure exponential growth throughout the experimental period, and then allowed to adhere for 1 day[21]. Next, the cells were treated with four serial concentrations (1, 10, 50, and 100 µM) of each compound. Taxol, CA-4, and CA-4P (phosphorylated form of CA-4) were used as positive controls. After 48 h incubation, MTT solution was added to each well at a final concentration of 2 mg/mL, and incubated for an additional 4 h. Next, the MTT solution was removed and 150 µL of dimethyl sulphoxide (DMSO)/well was added (Sigma-Aldrich, St Louis, MO, USA). The plates were shaken vigorously at RT to ensure complete solubilisation, and absorption at 492 nm was determined.
(§3) According to standard protocol, preliminary in vitro anti-proliferative activities of the synthesised compounds were evaluated by MTT assay, using nine human cancer cell lines (MGC-803, A549, HepG2, AGS, BEL-7402, HCT116, HeLa, SGC-7901, and MCF-7) and two normal human cell lines (L-02 and MCF-10A), and compared with those of CA-4, CA-4P, and taxol.

The subject of data set [2] is MCF-10A normal breast cell. The data set can be described thus: MTT cell growth inhibition assay, MCF-10A (normal). Type of data set: cell-based, human. As to conditions: 48 h incubation, MCF-10A normal cells.
Source text: as §1, §2, §3

In data set [3] the test system is MCF-7 breast cancer cell. The data set can be described thus: MTT cell growth inhibition assay, MCF-7. Type of data set: cell-based, human. As to conditions: for IC50: MTT, 48 h incubation, MCF-7.
Source text: as §1, §2, §3

For data set [4], the system named is A549 lung cancer cell. The data set is described as follows: MTT cell growth inhibition assay, A549. Type of data set: cell-based, human. As to conditions: MTT, 48 h incubation, A549.
Source text: as §1, §2, §3

Data set [5] relates to BEL-7402 cells. The data set can be described thus: MTT cell growth inhibition assay, BEL-7402. Type of data set: cell-based, human. As to conditions: for IC50: MTT, 48 h incubation, Bel-7402.
Source text: as §1, §2, §3

Data set [6] deals with MGC-803 cells. The data set is described as follows: MTT cell growth inhibition assay, MGC-803. The format is cell-based, human. As to conditions: MTT, 48 h incubation, MGC-803.
Source text: as §1, §2, §3

In data set [7] the test system is SGC-7901 early differentiation gastric cancer cell. The data set can be described thus: MTT cell growth inhibition assay, SGC-7901. Type of data set: cell-based, human. As to conditions: 48 h incubation.
Source text: as §1, §2, §3

Data set [8] relates to L-02 normal liver cell. The data set can be described thus: MTT cell growth inhibition assay, L-02 (normal). The format is cell-based, human. The settings on record: 48 h incubation, L-02 normal cells.
Source text: as §1, §2, §3

Data set [9] concerns AGS cells. The data set is described as follows: MTT cell growth inhibition assay, AGS. The format is cell-based, human. The settings on record: for IC50: MTT, 48 h incubation, AGS.
Source text: as §1, §2, §3

Data set [10] has as its system HCT116 cells. The data set can be described thus: MTT cell growth inhibition assay, HCT116. Type of data set: cell-based, human. The settings on record: for IC50: MTT, 48 h incubation, HCT116.
Source text: as §1, §2, §3

Data set [11] has as its system HepG2 hepatoma cell. The data set can be described thus: MTT cell growth inhibition assay, HepG-2. The format is cell-based, human. As to conditions: MTT, 48 h incubation, HepG-2.
Source text: as §1, §2, §3

For orientation: IC50 means the midpoint of a concentration-inhibition curve. In general, melting point refers to the temperature, or range, at which the solid turns liquid. The molecule `COc1cc(/C(C#N)=C/c2cccs2)cc(OC)c1OC` [Compound 7a, (Z)-3-(Thiophen-2-yl)-2-(3,4,5-trimethoxyphenyl)acrylonitrile] yielded a melting point of 102 to 104 °C. Besides, the IC50 in [1] (Homo sapiens) is greater than 100 µM. In data set [2] (Homo sapiens), this molecule displayed an IC50 of 55.8 ± 10.4 µM. The molecule further came in with an IC50 in data set [3] (Homo sapiens, MCF7) of 15 ± 2 µM. For the same molecule, in data set [3] (selectivity index, IC50 (MCF-10A)/IC50 (MCF-7)), the “SI IC50 (MCF-10A/MCF-7)” value is reported as greater than 3.7. The molecule also displayed an IC50 in data set [4] (Homo sapiens) greater than 100 µM. In data set [5] (Homo sapiens), this molecule registered an IC50 of 1.82 ± 1.2 µM. In addition, in data set [5] (selectivity index, IC50 (L-02)/IC50 (BEL-7402)), the “SI IC50 (L-02/BEL-7402)” value was greater than 11.6. The molecule further came in with a half-maximal inhibitory concentration (IC50) in [6] (Homo sapiens, MGC-803, 48 h) of 0.67 ± 0.22 µM. Also, the IC50 in [7] (Homo sapiens) was greater than 100 µM. Besides, 21.2 ± 10.8 µM corresponded to half-maximal inhibition in data set [8] (Homo sapiens) (IC50). In addition, in data set [9] (Homo sapiens), the IC50 amounted to 8.01 ± 1.65 µM. The “SI IC50 (L-02/AGS)” value in [9] (selectivity index, IC50 (L-02)/IC50 (AGS)) is given as greater than 2.6. Further, in [10] (Homo sapiens, HCT-116), the IC50 is 16.6 ± 10.3 µM. The “SI IC50 (L-02/HCT116)” value in [10] (selectivity index, IC50 (L-02)/IC50 (HCT116)) is reported as greater than 1.2. The molecule further had an IC50 in data set [11] (Homo sapiens, HepG2) greater than 100 µM.

Turning to `Cc1ccc(/C=C(\C#N)c2ccc(C)cc2)cc1` [Compound 13a, (Z)-2,3-Di-p-tolylacrylonitrile], the melting point was 68 to 70 °C. For the same molecule, in data set [1] (Homo sapiens), the half-inhibitory concentration (IC50) was greater than 100 µM. In [2] (Homo sapiens), the 50% inhibitory concentration (IC50) is greater than 100 µM. The IC50 in [3] (Homo sapiens, MCF7) was greater than 100 µM. The molecule also came in with an IC50 in [4] (Homo sapiens) greater than 100 µM. In [5] (Homo sapiens), this molecule displayed an IC50 greater than 100 µM. The molecule also gave an IC50 in data set [6] (Homo sapiens, MGC-803, 48 h) greater than 100 µM. The molecule further showed an IC50 in [7] (Homo sapiens) greater than 100 µM. In addition, in [8] (Homo sapiens), the IC50 is greater than 100 µM. Moreover, the IC50 in data set [9] (Homo sapiens) stood at 27.9 ± 5.84 µM. The molecule further returned an IC50 in [10] (Homo sapiens, HCT-116) greater than 100 µM. For the same molecule, the IC50 in data set [11] (Homo sapiens, HepG2) was greater than 100 µM.

For the molecule `CCc1ccc(/C=C(\C#N)c2ccc(C)cc2)cc1` [Compound 13b, (Z)-3-(4-Ethylphenyl)-2-(p-tolyl)acrylonitrile], the melting point was in the range of 112 to 114 °C. The IC50 in [1] (Homo sapiens) is greater than 100 µM. Half-maximal inhibition in data set [2] (Homo sapiens) (IC50) required 85.7 ± 3.12 µM. The same molecule gave an IC50 in [3] (Homo sapiens, MCF7) of 35 ± 14.8 µM. This molecule registered a half-maximal inhibitory concentration (IC50) in data set [4] (Homo sapiens) greater than 100 µM. The IC50 in data set [5] (Homo sapiens) is greater than 100 µM. Besides, in [6] (Homo sapiens, MGC-803, 48 h), the IC50 is greater than 100 µM. In data set [7] (Homo sapiens), this molecule registered an IC50 greater than 100 µM. The molecule also displayed an IC50 in data set [8] (Homo sapiens) greater than 100 µM. The molecule further gave an IC50 in data set [9] (Homo sapiens) of 26.5 ± 3.89 µM. Also, in data set [10] (Homo sapiens, HCT-116), the IC50 is greater than 100 µM. Further, the IC50 in data set [11] (Homo sapiens, HepG2) is greater than 100 µM.

Turning to `COc1cc(/C=C(\C#N)c2ccc(C)cc2)cc(OC)c1OC` [Compound 13c, (Z)-2-(p-Tolyl)-3-(3,4,5-trimethoxyphenyl)acrylonitrile], the melting point is 135 to 137 °C. This molecule returned an IC50 in data set [1] (Homo sapiens) greater than 100 µM. In addition, in data set [2] (Homo sapiens), the IC50 was greater than 100 µM. In [3] (Homo sapiens, MCF7), this molecule showed an IC50 of 33.9 ± 7.3 µM. In [4] (Homo sapiens), this molecule came in with an IC50 greater than 100 µM. Besides, the midpoint of inhibition in data set [5] (Homo sapiens), the IC50, lay at 77.3 ± 0.26 µM. In addition, the IC50 in [6] (Homo sapiens, MGC-803, 48 h) was greater than 100 µM. For the same molecule, in data set [7] (Homo sapiens), the IC50 was greater than 100 µM. Besides, the IC50 in data set [8] (Homo sapiens) is greater than 100 µM. Inhibition in data set [9] (Homo sapiens) was half-maximal at 66.2 ± 3.65 µM (IC50). This molecule also had an IC50 in [10] (Homo sapiens, HCT-116) of 79.2 ± 5.21 µM. The molecule further gave an IC50 in data set [11] (Homo sapiens, HepG2) greater than 100 µM.

Consider “(Z)-3-(Naphthalen-1-yl)-2-(3,4,5-trimethoxyphenyl)acrylonitrile [Compound 7c]”, for which the 50% inhibitory concentration (IC50) in data set [1] is greater than 100 µM; in data set [2], 1.03 ± 0.44 µM; in data set [3], 2.83 ± 0.35 µM; in data set [4], greater than 100 µM; in data set [5] it was 2.53 ± 0.12 µM; in data set [6] it was 3.45 ± 2.11 µM. Also, the IC50 in data set [7] is greater than 100 µM; in data set [8], 8.21 ± 0.051 µM; in data set [9], 3.51 ± 0.25 µM; in data set [10] it was 4.58 ± 0.42 µM; in data set [11] it was greater than 100 µM.
